Assay results reported in ChEMBL document CHEMBL5523679, “Discovery of 1,2,3-triazole incorporated indole-piperazines as potent antitubercular agents: Design, synthesis, in vitro biological evaluation, molecular docking and ADME studies” (Bioorg Med Chem, 2024).
Converted amounts (≈) assume the structure as drawn.

Columns and labels:
[1] = tested on: Escherichia coli; experiment: Antibacterial activity against Escherichia coli assessed as inhibition zone at 75 ug/ml by diffusion method; assay type: functional; details: read-out: IZ
[2] = tested on: Mycobacterium tuberculosis; experiment: Antimycobacterial activity against Mycobacterium tuberculosis H37Rv assessed as bacterial growth inhibition by microplate Alamar blue assay; assay type: functional
[3] = tested on: Pseudomonas aeruginosa; experiment: Antibacterial activity against Pseudomonas aeruginosa assessed as inhibition zone at 75 ug/ml by diffusion method; assay type: functional; details: read-out: IZ
[4] = tested on: Staphylococcus aureus; experiment: Antibacterial activity against Staphylococcus aureus assessed as inhibition zone at 50 ug/ml by diffusion method; assay type: functional; details: read-out: IZ
[5] = tested on: Escherichia coli; experiment: Antibacterial activity against Escherichia coli assessed as inhibition zone at 50 ug/ml by diffusion method; assay type: functional; details: read-out: IZ
[6] = tested on: Staphylococcus aureus; experiment: Antibacterial activity against Staphylococcus aureus assessed as inhibition zone at 25 ug/ml by diffusion method; assay type: functional; details: read-out: IZ
[7] = tested on: Staphylococcus aureus; experiment: Antibacterial activity against Staphylococcus aureus assessed as inhibition zone at 75 ug/ml by diffusion method; assay type: functional; details: read-out: IZ
[8] = tested on: Pseudomonas aeruginosa; experiment: Antibacterial activity against Pseudomonas aeruginosa assessed as inhibition zone at 25 ug/ml by diffusion method; assay type: functional; details: read-out: IZ
[9] = tested on: Escherichia coli; experiment: Antibacterial activity against Escherichia coli assessed as inhibition zone at 25 ug/ml by diffusion method; assay type: functional; details: read-out: IZ
[10] = tested on: Pseudomonas aeruginosa; experiment: Antibacterial activity against Pseudomonas aeruginosa assessed as inhibition zone at 50 ug/ml by diffusion method; assay type: functional; details: read-out: IZ
[11] = Cytotoxicity against African green monkey Vero cells measured after 72 hrs by MTT assay; assay type: toxicity, cell-based; details: chlorocebus sabaeus
[12] = Cytotoxicity against African green monkey Vero cells assessed as inhibition of cell growth at 6.25 ug/ml measured after 72 hrs by MTT assay relative to control; assay type: toxicity, cell-based; details: chlorocebus sabaeus, at 6.25 µg/mL
[13] = Selectivity index, ratio of CC50 for African green monkey Vero cells to MIC for Mycobacterium tuberculosis H37Rv; assay type: toxicity; details: read-out: Selectivity Index

SMILES	zone of inhibition at 75 µg/mL [1] [mm]	MIC [2] [µM]	zone of inhibition at 75 µg/mL [3] [mm]	zone of inhibition at 50 µg/mL [4] [mm]	zone of inhibition at 50 µg/mL [5] [mm]	zone of inhibition at 25 µg/mL [6] [mm]	zone of inhibition at 75 µg/mL [7] [mm]	zone of inhibition at 25 µg/mL [8] [mm]	zone of inhibition at 25 µg/mL [9] [mm]	zone of inhibition at 50 µg/mL [10] [mm]	CC50 at 72 h [11] [mg/L]	inhibition at 72 h, 6.25 ug/ml [12] [%]	selectivity ratio [13]
O=C(CCc1c[nH]c2ccccc12)N1CCN(S(=O)(=O)c2ccc(F)cc2)CC1	17	> 120	18	15	15	13	20	13	13	15	–	–	–
O=C(CCc1cn(Cc2ccc(F)cc2)c2ccccc12)N1CCN(S(=O)(=O)c2ccccc2)CC1	14	49.4	18	18	12	15	20	10	–	15	–	–	–
O=C(CCc1cn(Cc2cn(Cc3ccc(F)cc3)nn2)c2ccccc12)N1CCN(S(=O)(=O)c2ccc(Cl)cc2)CC1	24	20.1	18	13	20	10	20	10	15	15	–	–	–
O=C(Cc1c[nH]c2ccccc12)N1CCN(S(=O)(=O)c2ccccc2)CC1	17	> 120	18	15	15	13	18	13	13	15	–	–	–
O=C(CCc1cn(Cc2cn(Cc3ccc(F)cc3)nn2)c2ccccc12)N1CCN(C(=O)c2ccc(Cl)cc2)CC1	23	10.7	15	15	20	6	18	–	13	12	986 (≈ 1680 µM)	7.9	158
O=C(Cc1cn(Cc2ccc(F)cc2)c2ccccc12)N1CCN(S(=O)(=O)c2ccccc2)CC1	15	50.8	18	18	13	15	20	10	–	15	–	–	–
O=C(CCc1cn(Cc2ccc(F)cc2)c2ccccc12)N1CCN(C(=O)c2ccc(Cl)cc2)CC1	18	12.4	13	19	15	13	23	–	–	10	385 (≈ 764 µM)	36.4	61.6
Cc1ccc(S(=O)(=O)N2CCN(C(=O)CCc3cn(Cc4cn(Cc5ccc(F)cc5)nn4)c4ccccc34)CC2)cc1	20	20.8	15	15	20	12	20	9	15	13	–	–	–
O=C(CCc1cn(Cc2ccc(F)cc2)c2ccccc12)N1CCN(C(=O)c2ccc(F)cc2)CC1	18	12.8	13	17	15	13	23	–	–	–	619 (≈ 1270 µM)	31.9	198
Cc1ccc(S(=O)(=O)N2CCN(C(=O)CCc3c[nH]c4ccccc34)CC2)cc1	18	> 120	18	13	15	10	15	10	13	15	–	–	–
O=C(Cc1cn(Cc2ccc(F)cc2)c2ccccc12)N1CCN(C(=O)c2ccc(F)cc2)CC1	18	13.2	13	18	15	15	21	–	–	10	448 (≈ 946 µM)	33.8	71.7
Cc1ccc(C(=O)N2CCN(C(=O)CCc3cn(Cc4ccc(F)cc4)c4ccccc34)CC2)cc1	17	51.7	18	18	15	13	20	10	–	15	–	–	–
Cc1ccc(C(=O)N2CCN(C(=O)Cc3cn(Cc4ccc(F)cc4)c4ccccc34)CC2)cc1	15	26.6	18	15	13	10	20	10	–	15	–	–	–
Cc1ccc(S(=O)(=O)N2CCN(C(=O)Cc3c[nH]c4ccccc34)CC2)cc1	18	> 120	15	12	15	10	15	10	12	13	–	–	–
O=C(CCc1cn(Cc2cn(Cc3ccc(F)cc3)nn2)c2ccccc12)N1CCN(C(=O)c2cccnc2)CC1	25	2.9	10	15	23	6	18	–	15	–	1170 (≈ 2120 µM)	11.7	732
O=C(CCc1cn(Cc2cn(Cc3ccc(F)cc3)nn2)c2ccccc12)N1CCN(C(=O)c2ccc(F)cc2)CC1	23	2.8	13	15	20	13	20	–	15	–	1200 (≈ 2110 µM)	11.7	750
